Experiments:
Assay type in all cases: cell-based, Human
H1703 (PDGFRa amp) = experiment: In vitro growth inhibition of H1703 tumor cells (MTT/CCK8); details: Homo sapiens, NCI-H1703; in vitro growth inhibition (or induction of apoptosis), cells cultured 3 to 5 days, MTT (CCK8); read-out: IC50 H1703 (PDGFRa amp)
Source text: (§1) Tumor cell lines are an effective model for studying in vitro tumor growth inhibition. In the present invention, a representative tumor cell line was selected to determine the cell growth inhibition activity of the present compound. All cell lines used were from ATCC, DSMZ, and cell banks of the Chinese Academy of Sciences. Cell culture conditions and methods were in accordance with the requirements of each cell line. Cells were subcultured in vitro for no more than 3 generations each time, and as required, single-clone purification and identification of cell lines could be carried out.
(§2) The cell culture media used were RPMI1640 (Gibco), DMEM (Gibco), MEM (Gibco), L15 (Gibco), IMDM (Gibco), McCOY'S5A, and William's (Gibco). 5-20% fetal bovine serum (Gibco), 1% double antibiotic, 2 mM glutamine, or 1 mM sodium pyruvate were added. The names, species, major gene characteristics, culture media and cell sources of the cell lines used are shown in table 1, wherein “amp” refers to gene amplification. “+++” refers to gene overexpression. The main genetic characteristics of cells were obtained from the COSMIC Cell Lines Project and related research papers, respectively.
(§3) Adherent cells were digested with 0.25% trypsin-EDTA (Gibco). Suspension culture cells were collected by centrifugation (1700 rpm, 3 minutes). The supernatant was discarded and the cells were counted. According to each cell growth cycle, different concentrations of cells were prepared (5˜10×10^4 cells per ml), and inoculated to 96-well plates (Corning), with 100 μl per well, and incubated overnight at 37° C., 5% CO2. The next day, the test compound was added to the cultured cells (2 wells in parallel). The final concentration of the solvent was less than 1/1,000. The cells were further cultured for 3 to 5 days and assayed by MTT.
(§4) The compound was stored at a concentration of 10 mM at −20° C. and diluted to 2- or 10-fold series prior to use. BGJ398 and AC220 were synthesized according to the methods of WO2006420A1 and US2007232604A1, respectively.
(§5) The adherent cells were taken out from the cell culture medium, and immediately added to a freshly prepared complete medium containing 10% CCK8 (5% FBS), 100 ul per hole. The suspended cells were directly added to a CCK8 reagent until reaching a final concentration of 10% and cultured for 1 to 4 hours.
(§6) T=optical density of drug-treated cell wells−optical density of blank control wells; T0=optical density of cell wells before drug treatment−optical density of blank control wells; C=optical density of solvent control wells−optical density of blank control wells. […] The experiments were repeated 1 to 3 times and a statistical analysis of data was conducted.

KCL-22 (BCR-ABL) = experiment: In vitro growth inhibition of KCL-22 tumor cells (MTT/CCK8); details: Homo sapiens, KCL-22; in vitro growth inhibition (or induction of apoptosis), cells cultured 3 to 5 days, MTT (CCK8); read-out: IC50 KCL-22 (BCR-ABL)
Source text: as §1, §2, §3, §4, §5, §6

Kasumi-1 (KIT N822K) = experiment: In vitro growth inhibition of Kasumi-1 tumor cells (MTT/CCK8); details: Homo sapiens, Kasumi 1; in vitro growth inhibition (or induction of apoptosis), cells cultured 3 to 5 days, MTT (CCK8); read-out: IC50 Kasumi-1 (KIT N822K)
Source text: as §1, §2, §3, §4, §5, §6

Hep3B2 (FGFR3/4+++) = experiment: In vitro growth inhibition of Hep3B2 tumor cells (MTT/CCK8); details: Homo sapiens, Hep3B; in vitro growth inhibition (or induction of apoptosis), cells cultured 3 to 5 days, MTT (CCK8); read-out: IC50 Hep3B2 (FGFR3/4+++)
Source text: as §1, §2, §3, §4, §5, §6

Karpas 299 (NPM-ALK) = experiment: In vitro growth inhibition of Karpas 299 tumor cells (MTT/CCK8); details: Homo sapiens, KARPAS-299; in vitro growth inhibition (or induction of apoptosis), cells cultured 3 to 5 days, MTT (CCK8); read-out: IC50 Karpas 299 (NPM-ALK)
Source text: as §1, §2, §3, §4, §5, §6

H1581 (FGFR1 amp) = experiment: In vitro growth inhibition of H1581 tumor cells (MTT/CCK8); details: Homo sapiens, NCI-H1581; in vitro growth inhibition (or induction of apoptosis), cells cultured 3 to 5 days, MTT (CCK8); read-out: IC50 H1581 (FGFR1 amp)
MOLM-13 (FLT3-ITD) = experiment: In vitro growth inhibition of MOLM-13 tumor cells (MTT/CCK8); details: Homo sapiens, MOLM-13; in vitro growth inhibition (or induction of apoptosis), cells cultured 3 to 5 days, MTT (CCK8); read-out: IC50 MOLM-13 (FLT3-ITD)
KATO III (FGFR2 amp) = experiment: In vitro growth inhibition of KATO III tumor cells (MTT/CCK8); details: Homo sapiens, KATO III; in vitro growth inhibition (or induction of apoptosis), cells cultured 3 to 5 days, MTT (CCK8); read-out: IC50 KATO III (FGFR2 amp)

IC50 (H1703 (PDGFRa amp))	IC50 (KCL-22 (BCR-ABL))	IC50 (Kasumi-1 (KIT N822K))	IC50 (Hep3B2 (FGFR3/4+++))	IC50 (Karpas 299 (NPM-ALK))	IC50 (H1581 (FGFR1 amp))	IC50 (MOLM-13 (FLT3-ITD))	IC50 (KATO III (FGFR2 amp))	Compound
> 1000 nM	> 2500 nM	> 1000 nM	> 1000 nM	> 1000 nM	> 1000 nM	> 1000 nM	> 1000 nM	COc1cc2nc(Cl)cc(Oc3ccc(NC(=O)Nc4cc(C(C)(C)C)nn4C)c(Cl)c3)c2cc1C(N)=O [Compound 39, 4-{4-[3-(5-tert-butyl-2-methyl-2H-pyrazol-3-yl)-ureido]-3-chloro-phenoxy}-2-chloro-7-methoxyquinolin-6-carboxamide]
93 nM	112 nM	106 nM	446 nM	721 nM	127 nM	19.6 nM	2.53 nM	COc1cc2nccc(Oc3ccc(NC(=O)Nc4cc(C(C)C)n[nH]4)c(Cl)c3)c2cc1C(N)=O [Compound 40, 4-{3-chloro-4-[3-(5-isopropyl-2H-pyrazol-3-yl)-ureido]-phenoxy}-7-methoxyquinolin-6-carboxamide]
124 nM	353 nM	736 nM	514 nM	> 1000 nM	450 nM	134 nM	40.1 nM	COc1cc2nccc(Oc3ccc(NC(=O)Nc4cc(C5CC5)n[nH]4)c(Cl)c3)c2cc1C(N)=O [Compound 41, 4-{3-chloro-4-[3-(5-cyclopropyl-2H-pyrazol-3-yl)-ureido]-phenoxy}-7-methoxyquinolin-6-carboxamide]
37.2 nM	102 nM	149 nM	64.3 nM	558 nM	38.5 nM	51.5 nM	5.69 nM	CC(C)Oc1cc2nccc(Oc3ccc(NC(=O)Nc4cc(C(C)(C)C)n[nH]4)c(Cl)c3)c2cc1C(N)=O [Compound 43, 4-{4-[3-(5-tert-butyl-2H-pyrazol-3-yl)-ureido]-3-chloro-phenoxy}-7-isopropoxy-quinolin-6-carboxamide]
6.49 nM	2.21 nM	7.94 nM	11.3 nM	298 nM	1.61 nM	3.81 nM	1.08 nM	COCCOc1cc2nccc(Oc3ccc(NC(=O)Nc4cc(C(C)(C)C)nn4C)c(Cl)c3)c2cc1C(N)=O [Compound 44, 4-{4-[3-(5-tert-butyl-2-methyl-2H-pyrazol-3-yl)-ureido]-3-chloro-phenoxy}-7-(2-methoxy-ethoxy)-quinolin-6-carboxamide]

Second part, the compound before the results:

Compound	IC50 (H1703 (PDGFRa amp))	IC50 (KCL-22 (BCR-ABL))	IC50 (Kasumi-1 (KIT N822K))	IC50 (Hep3B2 (FGFR3/4+++))	IC50 (Karpas 299 (NPM-ALK))	IC50 (H1581 (FGFR1 amp))	IC50 (MOLM-13 (FLT3-ITD))	IC50 (KATO III (FGFR2 amp))
COc1cc2nccc(Oc3ccc(NC(=O)Nc4cc(C(C)(C)C)nn4C)c(Cl)c3)c2cc1C(N)=O [Compound 26, 4-{4-[3-(5-tert-butyl-2-methyl-2H-pyrazol-3-yl)-ureido]-3-chloro-phenoxy}-7-methoxyquinolin-6-carboxamide]	8.2 nM	5.16 nM	16.9 nM	10.9 nM	524 nM	9.78 nM	1.35 nM	0.07 nM
CCn1nc(C(C)(C)C)cc1NC(=O)Nc1ccc(Oc2ccnc3cc(OC)c(C(N)=O)cc23)cc1Cl [Compound 27, 4-{4-[3-(5-tert-butyl-2-ethyl-2H-pyrazol-3-yl)-ureido]-3-chloro-phenoxy}-7-methoxyquinolin-6-carboxamide]	9.2 nM	9.23 nM	8.44 nM	11.6 nM	351 nM	9.03 nM	3.92 nM	0.12 nM
C=CC(=O)n1nc(C(C)(C)C)cc1NC(=O)Nc1ccc(Oc2ccnc3cc(OC)c(C(N)=O)cc23)cc1Cl [Compound 28, 4-{4-[3-(2-acryloyl-5-tert-butyl-2H-pyrazol-3-yl)-ureido]-3-chloro-phenoxy}-7-methoxyquinolin-6-carboxamide]	17.1 nM	25.1 nM	32.5 nM	24.2 nM	698 nM	17.4 nM	6.53 nM	0.73 nM
CCC(=O)n1nc(C(C)(C)C)cc1NC(=O)Nc1ccc(Oc2ccnc3cc(OC)c(C(N)=O)cc23)cc1Cl [Compound 29, 4-{4-[3-(5-tert-butyl-2-propanoyl-2H-pyrazol-3-yl)-ureido]-3-chloro-phenoxy}-7-methoxyquinolin-6-carboxamide]	18 nM	29.4 nM	66.8 nM	29.4 nM	626 nM	26.3 nM	11.5 nM	1.48 nM
COc1cc2nccc(Oc3ccc(NC(=O)Nc4cc(C(C)(C)C)nn4C4CCCC4)c(Cl)c3)c2cc1C(N)=O [Compound 30, 4-{4-[3-(5-tert-butyl-2-cyclopentyl-2H-pyrazol-3-yl)-ureido]-3-chloro-phenoxy}-7-methoxyquinolin-6-carboxamide]	16.7 nM	22 nM	23.7 nM	26.1 nM	276 nM	15.5 nM	17.8 nM	1.62 nM
COc1cc2nccc(Oc3ccc(NC(=O)Nc4cc(C(C)(C)C)nn4CCN4CCOCC4)c(Cl)c3)c2cc1C(N)=O [Compound 31, 4-(4-{3-[5-tert-butyl-2-(2-morpholin-4-yl-ethyl)-2H-pyrazol-3-yl]-ureido}-3-chloro-phenoxy)-7-methoxyquinolin-6-carboxamide]	25 nM	51.2 nM	40.4 nM	32.9 nM	465 nM	23.4 nM	9.45 nM	0.12 nM
COc1cc2nccc(Oc3ccc(NC(=O)Nc4cc(C(C)(C)C)nn4CCO)c(Cl)c3)c2cc1C(N)=O [Compound 32, 4-(4-{3-[5-tert-butyl-2-(2-hydroxy-ethyl)-2H-pyrazol-3-yl]-ureido}-3-chloro-phenoxy)-7-methoxyquinolin-6-carboxamide]	73.2 nM	163 nM	132 nM	56.6 nM	736 nM	35.8 nM	17.1 nM	0.18 nM
COc1cc2nccc(Oc3ccc(NC(=O)Nc4cc(C(C)(C)C)n[nH]4)c(C(F)(F)F)c3)c2cc1C(N)=O [Compound 33, 4-{4-[3-(5-tert-butyl-2H-pyrazol-3-yl)-ureido]-3-trifluoromethyl-phenoxy}-7-methoxyquinolin-6-carboxamide]	73 nM	25.7 nM	46.4 nM	130 nM	632 nM	49.8 nM	28.1 nM	0.71 nM
COc1cc2nccc(Oc3ccc(NC(=O)Nc4cc(C(C)(C)C)n[nH]4)c(C)c3)c2cc1C(N)=O [Compound 34, 4-{4-[3-(5-tert-butyl-2H-pyrazol-3-yl)-ureido]-3-methyl-phenoxy}-7-methoxyquinolin-6-carboxamide]	88.1 nM	98.2 nM	135 nM	96.4 nM	641 nM	57.5 nM	14.6 nM	1.62 nM
